Patent publication US20050118572A1, “Single cell assessment of viral infection/replication” (The Board of Trustees of the Leland Stanford Junior …, priority 2002, published 2005)

What was measured:
HIV-1 = HIV-1 infected PBMC, TCID50=300/1×10^6 cells, FIG. 5
glutathione (GSH) = experiment: Intracellular glutathione levels by monochlorobimane fluorescence (flow cytometry); format: cell-based, human
Experimental: PBMC were isolated and HIV-1 infected as described in materials and methods. Intracellular glutathione levels were assessed using monochlorobimane fluorescence and samples were analyzed by flow cytometry.

[1] = system: uninfected CD4 T cells and CD8 T cells; format: cell-based, human
Experimental: (§1) PBMC were infected with a high HIV-1 dose, incubated for three days with indicated concentrations of Gd-Tex, and assessed for annexin-V by flow cytometry. Live CD3 cells were gated and apoptotic percentages quantified for CD4 and CD8 cells.
At Gd-Tex doses below 250 µM, GSH depletion and Gd-Tex toxicity in CD8 T cells and uninfected CD4 T cells was minimal. […] These findings are shown in FIG. 4-5, in which data are shown for subset-defining cell surface marker expression, HIV infection, intracellular GSH and Gd-Tex toxicity (induction of apoptosis and the breaking of the cell permeability barrier), all measured simultaneously for individual cells by 11-color, 13-parameter Hi-D FACS.

[2] = system: HIV-1 infected CD4 T cells; experiment: Killing / apoptosis (annexin-V, intracellular p24, EMA) of HIV-1 infected CD4 T cells by FACS; format: cell-based, human
Experimental: as §1
PBMC were infected with high and low HIV-1 doses and treated for six days with the indicated concentrations and processed as indicated above.
Live CD4 T cells were gated and analyzed for annexin-V and p24 stain.
IL-2 activated, HIV-infected cultures were treated with Gd-Tex at the indicated concentrations for 6 days and processed for flow cytometry. […] Histograms are representative of 4 independent experiments.

## CC(=O)[O-].CC(=O)[O-].CCc1c(CC)c2cc3nc(cnc4cc(OCCOCCOCCOC)c(OCCOCCOCCOC)cc4ncc4nc(cc1[n-]2)C(CCCO)=C4C)C(C)=C3CCCO.O.[Gd+3] [Gd-Tex, motexafin gadolinium]
HIV-1
  HIV-1 production (RT activity, p24 levels): inhibition of HIV-1 production
Glutathione (GSH); Gd-Tex doses below 250 µM
  GSH depletion in CD8 T cells and uninfected CD4 T cells: minimal
Glutathione (GSH); high doses of Gd-Tex
  GSH depletion in T cells in PBMC: depleted GSH
[1]
  Gd-Tex toxicity in CD8 T cells and uninfected CD4 T cells: minimal
  Killing of uninfected CD4 T cells and CD8 T cells: did not kill
[2]; 3 uM Gd-Tex
  Killing of HIV-infected (p24+) CD4 T cells: selectively killed
[2]; 50 μM Gd-Tex, 6 days
  p24 cells among live CD4 T cells infected with HIV-1: decrease of p24 cells
[2]; Gd-Tex concentrations not cytotoxic to uninfected cells
  Apoptosis induction in HIV-1 infected CD4 T cells: selectively induced apoptosis
